Patent US12378251B2, “Triazolopyrimidine compound and salt, composition and use thereof” (SHANGHAI INSTITUTE OF MATERIA MEDICA, CHINESE ACADEMY OF …, priority 2019, dated 2025)
Like-named read-outs stand apart in the source and are kept apart here.

What was measured:
[1] = system: human colon cancer cells HCT-116; assay: Inhibition of proliferation of HCT-116 cells (SRB method); format: cell-based
Method: The inhibitory effects of the compounds on the proliferation of human colon cancer cells HCT-116 were detected by a sulforodamine B (SRB) method. The specific steps were as follows: HCT-116 cells in the logarithmic phase were seeded into a 96-well culture plate at a suitable density with 90 μL per well. After overnight cultivation, the compounds at different concentrations were added to act for 72 h, and a solvent control group (negative control) was set. After 72 h of the compounds acting on the cells, the effects of the compounds on cell proliferation were detected using the SRB method as follows. The culture solution was discarded, and 100 μL/well of 10% trichloroacetic acid (TCA) pre-cooled at 4° C. was added, fixed at 4° C. for 1 h, then washed with distilled water for 5 times, and naturally dried in the air; 100 μL/well of SRB (4 mg/ml) solution prepared by 1% glacial acetic acid was added, stained at room temperature for 15 minutes; the supernatant was removed, washed with 1% acetic acid for 5 times, and air dried; 150 μl/well of Tris (10 mM) solution was added, then left at room temperature for 15 minutes; finally, a full-wavelength microplate enzyme-labeled instrument SpectraMax 190 was used to read with a measurement wavelength of 560 nm. The inhibition rate (%) of the compound on tumor cell growth was calculated by the following formula: [formula]

[2] = biological target: NAE enzyme (human recombinant APPBP1/UBA3) (Homo sapiens (Human), UniProt Q8TBC4); assay: Inhibition of NAE enzyme activity at the molecular level (HTRF); format: biochemical
Method: Homogeneous Time-Resolved Fluorescence (HTRF) technology was used to detect the in vitro inhibitory effect of the compound on NAE enzyme activity. […] (7) the inhibition rate of the compound was calculated by the following formula: • a. […] IC50 was calculated with a GraphPad software.

[3] = HCT-116, 72 h, read-out: HCT-116 IC50* (μM)
[4] = HCT-116 cells, 72 h, SRB, read-out: HCT-116 IC50*

Chain of NAE enzyme (human recombinant APPBP1/UBA3) (Q8TBC4 whole entry): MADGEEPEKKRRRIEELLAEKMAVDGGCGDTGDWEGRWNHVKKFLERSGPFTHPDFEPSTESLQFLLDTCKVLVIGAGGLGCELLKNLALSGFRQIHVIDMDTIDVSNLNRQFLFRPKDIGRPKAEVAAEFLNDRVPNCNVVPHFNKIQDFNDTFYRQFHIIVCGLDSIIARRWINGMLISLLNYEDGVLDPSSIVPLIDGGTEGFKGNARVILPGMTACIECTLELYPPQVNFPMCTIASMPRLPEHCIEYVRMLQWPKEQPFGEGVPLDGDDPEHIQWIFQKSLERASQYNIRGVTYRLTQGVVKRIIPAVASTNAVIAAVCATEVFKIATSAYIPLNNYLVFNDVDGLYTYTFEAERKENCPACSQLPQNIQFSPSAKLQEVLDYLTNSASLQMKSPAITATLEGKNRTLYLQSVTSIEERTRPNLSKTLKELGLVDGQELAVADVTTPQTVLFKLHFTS
Chain of NAE enzyme (human recombinant APPBP1/UBA3) (Q13564 whole entry partner): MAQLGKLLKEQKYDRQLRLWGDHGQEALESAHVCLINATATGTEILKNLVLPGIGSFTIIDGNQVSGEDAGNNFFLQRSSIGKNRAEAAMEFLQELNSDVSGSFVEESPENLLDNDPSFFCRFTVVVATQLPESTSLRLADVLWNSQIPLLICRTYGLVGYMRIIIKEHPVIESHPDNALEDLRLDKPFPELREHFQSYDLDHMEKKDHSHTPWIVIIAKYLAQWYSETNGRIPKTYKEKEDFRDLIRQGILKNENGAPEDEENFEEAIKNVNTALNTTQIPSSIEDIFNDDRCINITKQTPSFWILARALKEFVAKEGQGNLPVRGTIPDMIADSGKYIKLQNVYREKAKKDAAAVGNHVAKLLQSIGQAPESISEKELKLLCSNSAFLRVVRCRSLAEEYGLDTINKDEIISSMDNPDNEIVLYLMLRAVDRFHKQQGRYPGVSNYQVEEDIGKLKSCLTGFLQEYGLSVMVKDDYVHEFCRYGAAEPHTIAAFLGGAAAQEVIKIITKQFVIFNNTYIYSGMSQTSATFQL

| IC50 [1, 4] [µM] | inhibition at 10 µM ([2]; 2 h; read-out: IR (10 μM)) [%] | SMILES | IC50 [1, 3] [µM] | inhibition at 10 µM ([2]; 2 h, read-out: IR (10 μM)) [%] | IC50 ([2]; NAE enzyme activity, HTRF) [µM] |
| --- | --- | --- | --- | --- | --- |
| < 0.01 | 99.5 | NS(=O)(=O)OCC1CC(n2nnc3c(NCc4ccccc4F)ncnc32)CC1O (stereo not drawn) [Compound S2] | – | – | – |
| 0.01 to 100 | 98.8 | NS(=O)(=O)OCC1CC(n2nnc3c(NCc4cccs4)ncnc32)CC1O (stereo not drawn) [Compound S3] | – | – | – |
| > 100 | 96.1 | NS(=O)(=O)OCC1CC(n2nnc3c(NCCCc4ccccc4)ncnc32)CC1O (stereo not drawn) [Compound S7] | – | – | 0.1 to 1 |
| > 100 | 98.3 | CCCCCCNc1ncnc2c1nnn2C1CC(O)C(COS(N)(=O)=O)C1 (stereo not drawn) [Compound S8] | – | – | – |
| < 0.01 | 98.3 | NS(=O)(=O)OCC1CC(n2nnc3c(N[C@@H]4c5ccccc5C[C@@H]4O)ncnc32)CC1O (stereo partly drawn) [Compound S9] | – | – | – |
| > 100 | 85.2 | NS(=O)(=O)OC[C@@H]1C[C@@H](n2nnc3c(N[C@@H]4C[C@H]4c4ccc(F)c(F)c4)ncnc32)CC1O (stereo partly drawn) [Compound S16] | – | – | – |
| > 100 | 7.9 | NS(=O)(=O)OCC1CC(n2nnc3c(Nc4n[nH]c5ccccc45)ncnc32)CC1O (stereo not drawn) [Compound S17] | – | – | – |
| > 100 | 48.2 | NS(=O)(=O)OCC1CC(n2nnc3c(NC4CCCC4)ncnc32)CC1O (stereo not drawn) [Compound S21] | – | – | – |

Second part, the molecule before the results:

| SMILES | IC50 [1, 4] [µM] | inhibition at 10 µM ([2]; 2 h; read-out: IR (10 μM)) [%] | IC50 [1, 3] [µM] | inhibition at 10 µM ([2]; 2 h, read-out: IR (10 μM)) [%] | IC50 ([2]; NAE enzyme activity, HTRF) [µM] |
| --- | --- | --- | --- | --- | --- |
| NS(=O)(=O)OCC1CC(n2nnc3c(N[C@H]4CCc5ccccc54)ncnc32)CC1O (stereo partly drawn) [Compound S1] | – | – | < 0.01 | 99 | – |
| NS(=O)(=O)OCC1CC(n2nnc3c(NCc4ccco4)ncnc32)CC1O (stereo not drawn) [Compound S4] | 0.01 to 100 | 98.6 | – | – | – |
| NS(=O)(=O)OCC1CC(n2nnc3c(NCCc4cccs4)ncnc32)CC1O (stereo not drawn) [Compound S5] | – | – | > 100 | 95.2 | 0.1 to 1 |
| NS(=O)(=O)OCC1CC(n2nnc3c(NCCc4ccccc4)ncnc32)CC1O (stereo not drawn) [Compound S6] | – | – | > 100 | 95.8 | – |
| NS(=O)(=O)OCC1CC(n2nnc3c(N[C@H]4CC5(CCNCC5)c5ccccc54)ncnc32)CC1O (stereo partly drawn) [Compound S14] | > 100 | 91.4 | – | – | – |
| CN1CCC2(CC1)C[C@H](Nc1ncnc3c1nnn3C1CC(O)C(COS(N)(=O)=O)C1)c1ccccc12 (stereo partly drawn) [Compound S15] | 0.01 to 100 | 77 | – | – | 0.1 to 1 |
| NS(=O)(=O)OCC1CC(n2nnc3c(Nn4ccc5ccccc54)ncnc32)CC1O (stereo not drawn) [Compound S18] | > 100 | 43.3 | – | – | – |
| NS(=O)(=O)OCC1CC(n2nnc3c(Nc4cnc5ccccn45)ncnc32)CC1O (stereo not drawn) [Compound S19] | > 100 | 57.8 | – | – | – |
| COC(=O)[C@H]1C=C[C@@H](Nc2ncnc3c2nnn3C2CC(O)C(COS(N)(=O)=O)C2)C1 (stereo partly drawn) [Compound S20] | – | – | > 100 | 84.8 | – |
| NS(=O)(=O)OC[C@@H]1C[C@@H](n2ccc3c(N[C@H]4CCc5ccccc54)ncnc32)C[C@@H]1O [MLN4924, reference compound] | < 0.01 | – | – | 98.6 | – |
